Results from patent US20230127345A1, “SELENOGALACTOSIDE COMPOUNDS FOR THE PREVENTION AND TREATMENT OF DISEASES ASSOCIATED WITH GALECTIN AND THE USE THEREOF” (GALECTIN SCIENCES, LLC, priority 2016, published 2023).

What was measured:
[1] = target: Galectin-9 and integrin aMB2 (Homo sapiens, UniProt O00182); assay: ELISA format with pairs of galectins and integrins; assay type: biochemical; settings: FIG. 15
Galectin-3 [2] = target: T1, Galectin-3 (Homo sapiens, UniProt P17931); assay: Fluorescent polarization assay with fluorescent ligand; assay type: binding; settings: for inhibition of Galectin-3 CRD specific fluorescent-ligand: Fluorescent polarization, inhibition curves
Target sequence in this assay (P17931 whole entry): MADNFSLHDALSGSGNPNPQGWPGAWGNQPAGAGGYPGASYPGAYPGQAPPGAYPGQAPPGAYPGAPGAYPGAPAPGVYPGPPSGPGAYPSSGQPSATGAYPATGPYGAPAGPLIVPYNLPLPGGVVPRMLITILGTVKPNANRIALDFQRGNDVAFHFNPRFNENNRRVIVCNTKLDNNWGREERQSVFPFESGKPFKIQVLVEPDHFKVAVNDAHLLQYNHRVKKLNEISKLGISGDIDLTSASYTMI

[3] = target: Galectin 1 and integrin aBV6 (Homo sapiens, UniProt P09382); assay: ELISA format with pairs of galectins and integrins; assay type: biochemical; settings: FIG. 15
MCP-1 = assay: In-vitro inflammatory model, MCP-1 in endotoxin stressed THP-1 monocytes; assay type: cell-based; settings: THP-1 stimulated with endotoxin for 5 days
Description: A model of macrophage polarization was set up, starting from THP-1 monocytes culture which is differentiated into inflammatory macrophages using PMA (Phorbol 12-myristate 13-acetate) for 2-4 days. Once differentiated (MO macrophages), the macrophages were induced with LPS or LPS and IFN-gamma for macrophage activation (M1) to inflammatory stage for 1-3 days. Array of cytokines and chemokines were analyzed to confirm the polarization of THP-1-derived macrophages to inflammatory stage. The impact of the anti-galectin 3 compounds on macrophage polarization was assessed first by monitoring cell viability using a colorimetric method (using a tetrazolium reagent) to determine the number of viable cells in proliferation or cytotoxicity assays (Promega, The CellTiter 96® AQueous One Solution Cell Proliferation Assay which contains a novel tetrazolium compound [3-(4,5-[…])-5-(3-carboxymethoxyphenyl)-2-(4-sulfophenyl)-2H-tetrazolium, inner salt; MTS] and an electron coupling reagent (phenazine ethosulfate; PES)) and inflammatory stage evaluated by a quantitatively measure of the chemokine Monocyte Chemoattractant Protein-1 (MCP-1/CCL2), a key protein that regulates migration and infiltration of monocytes/macrophages in cellular process of inflammation. Follow-up testing for the expression and secretion of other cytokines and chemokines were done for leading active compounds. […]

Galectin-3 [4] = assay: Galectin-3 expression in TGFb1 stimulated LX-2 stellate cells, flow cytometry; assay type: cell-based; settings: TGFb1, 5 days serum starved stimulated LX-2 cells
Description: TGFb1 stimulates hepatic stellate cells into the fibrogenesis pathway leading to secretion of collagen and other fibrosis biomarkers. […] While it is known that lactose has binding affinity to Gal-3, galactose lacks this affinity. […] The result confirmed this hypothesis.

HTB-38 cells = assay: Cell culture viability, HTB-38; assay type: cell-based; settings: HTB-38, exposed over 3 days in standard growth media
Description: Procedure for HTB-38 Cells ([…]) was as follow:
1. HTB-38 cells were resuspended in culture media containing 8 ng/ml h-IFN-gamma, 4× Pen/Strep and 10% Fetal Bovine Serum (Gibco lot# 1260930). 2. Cells were transferred at 100μl/well in assay plate (4,000-10,000 cells/well, passage# 4-30). 3. Tested compound was diluted serially in assay media as above, usually in range of 100 μg/ml to 20 ng/mL 4. 100 μl/well serial diluted compound was added in duplicate to cells. Final volume of each well was 200 μl, containing 4 ng/ml h-IFN-gamma, 2× Pen/Strep, 5. Cells were Incubate 60-90 hours at 37° C. 6. 20 μl of Promega Substrate [CellTiter 96 Aqueous One Solution] Reagent was added to each well. 7. Cells were incubated at 37° C. for 4-8 hrs and read OD at 490 nm.
(§1) Cells were exposed to the G-625 over 3 days in standard growth media.

MCF-7 cells = assay: Cell culture viability, MCF-7; assay type: cell-based; settings: MCF-7, exposed over 3 days in standard growth media
Description: Procedure for MCF-7 Cells ([…]) was as follow:
1. MCF-7 cells were resuspended in culture media containing 4× Pen/Strep and 0.25% Fetal Bovine Serum (Gibco lot# 1202161). 2. 100 ul media was added with approximately 4,000-10,000 cells/well, passage # 5 up to 30) and cells were incubated for at least 24 hrs at 37° C. 3. Tested compound was diluted serially in assay media as above, usually at a range of 100 μg/ml to 20 ng/mL 4. […] serial diluted compound was added in duplicate to cells in assay plate. Final volume of each well was […], (containing 2× Pen/Strep, 0.25% FBS and compound as indicated 5. Cells were incubated 60-80 hours at 37° C. 6. […] of Promega Substrate [CellTiter 96 Aqueous One Solution] Reagent was added to each well. 7. Cells were incubated 37° C. for 4-8 hrs and read OD at 490 nm.
as §1

[5] = target: Gal-3/integrins (αVβ3, αVβ6, αMβ2) (Homo sapiens, UniProt P17931); assay: gal-3/integrin interaction ELISA assay; assay type: biochemical; settings: compared with TD-139 (G240); FIG. 10, 11A-11C
Description: (§2) Experiments have been performed to evaluate the physical interaction of galectin proteins with these various biological ligands mediating cellular functions.

Galectin-3 [6] = target: T1, Galectin-3; assay: ELISA of Galectin-3 binding inhibition (anti-Galectin-3 antibodies)
Description: as §2
Target sequence in this assay (P17931 whole entry): as above

[7] = target: gal-3 with Integrin (aMB2) (Homo sapiens, UniProt P17931); assay: gal-3/integrin interaction ELISA, Integrin (aMB2); assay type: biochemical; settings: FIG. 11D and 11E
[8] = pulmonary administration; cited from earlier work
Galectin-3 [9] = target: T1, Galectin-3; settings: cited from earlier work
Target sequence in this assay (P17931 whole entry, species assumed): as the sequence (P17931 whole entry) above

gal-3 with Integrin (aMB2), sequence (P17931 whole entry): as above
Gal-3/integrins (αVβ3, αVβ6, αMβ2), sequence (P17931 2-250 limits assumed): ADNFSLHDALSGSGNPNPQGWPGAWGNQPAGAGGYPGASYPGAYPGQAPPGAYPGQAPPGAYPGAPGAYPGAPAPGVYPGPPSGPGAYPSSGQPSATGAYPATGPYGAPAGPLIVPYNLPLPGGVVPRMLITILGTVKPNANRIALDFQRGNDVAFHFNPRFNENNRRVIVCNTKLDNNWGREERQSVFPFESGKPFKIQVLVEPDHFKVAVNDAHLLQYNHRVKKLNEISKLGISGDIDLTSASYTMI
Galectin-9 and integrin aMB2, sequence (O00182 whole entry, species assumed): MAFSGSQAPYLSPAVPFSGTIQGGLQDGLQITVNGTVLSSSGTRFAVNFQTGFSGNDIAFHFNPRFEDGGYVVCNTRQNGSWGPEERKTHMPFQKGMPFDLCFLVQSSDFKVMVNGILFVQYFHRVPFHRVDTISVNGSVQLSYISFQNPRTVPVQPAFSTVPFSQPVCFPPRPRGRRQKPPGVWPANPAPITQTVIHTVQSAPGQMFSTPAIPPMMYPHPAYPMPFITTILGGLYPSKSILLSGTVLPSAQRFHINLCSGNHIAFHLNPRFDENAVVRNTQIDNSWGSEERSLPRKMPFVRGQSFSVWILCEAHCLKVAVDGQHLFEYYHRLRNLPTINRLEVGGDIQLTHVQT
Galectin 1 and integrin aBV6, sequence (P09382 whole entry, species assumed): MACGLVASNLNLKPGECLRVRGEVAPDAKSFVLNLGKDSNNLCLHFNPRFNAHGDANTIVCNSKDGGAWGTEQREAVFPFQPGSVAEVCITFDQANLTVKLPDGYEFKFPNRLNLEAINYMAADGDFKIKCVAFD

For `OC[C@H]1O[C@@H]([Se][C@@H]2O[C@H](CO)[C@H](O)[C@H](n3cc(-c4cccc(F)c4)nn3)[C@H]2O)[C@H](O)[C@@H](n2cc(-c3cccc(F)c3)nn2)[C@H]1O` [G-625, beta-D-Galactopyranoside, 3-deoxy-3-(4-(3-fluorophenyl)-1H-1,2,3-triazol-1-yl)-beta-D-galactopyranosyl 3-deoxy-3-(4-(3-fluorophenyl)-1H-1,2,3-triazol-1-yl)-1-seleno-], the “inhibition of interaction between Galectin-9 and integrin aMB2” value [1] was “significantly inhibited”, the IC50 (Galectin-3 [2]) was 259 nM and the “inhibition of Galectin-3 CRD specific fluorescent-ligand” value (Galectin-3 [2]) was “twice better inhibitor then G-240 (TD-139)”. For the same molecule, the “inhibition of interaction between Galectin 1 and integrin aBV6” value [3] was “significantly inhibited”, the “secretion of MCP-1” value (MCP-1) was “inhibitory effect on the inflammatory stage by reducing the secretion of MCP-1” and the galectin-3 expression (Galectin-3 [4]) was “enhanced activity of G-625 versus G-240”. The galectin-3 expression (Galectin-3 [4]; listed as G625) was “inhibition of galectin-3 expression”, the “cytotoxicity (cell culture viability)” value (HTB-38 cells) was “no cytotoxicity” and the “cytotoxicity (cell culture viability)” value (MCF-7 cells) was “no cytotoxicity”. For the same molecule, the “inhibition of Gal-3/integrins” value [5] was “more potent inhibitor of Gal-3/integrins than TD-139 (G240)” and the IC50 (Galectin-3 [6]) was 14.4 nM.
In the case of `OCC1OC([Se][Se]C2OC(CO)C(O)C(n3cc(-c4cccc(F)c4)nn3)C2O)C(O)C(n2cc(-c3cccc(F)c3)nn2)C1O` (stereo not shown) [G-626], the IC50 (Galectin-3 [2]) is reported as 5290 nM, the “inhibition of Galectin-3 CRD specific fluorescent-ligand” value (Galectin-3 [2]) is reported as “showed an inhibitory activity” and the “secretion of MCP-1” value (MCP-1) is reported as “inhibitory effect on the inflammatory stage by reducing the secretion of MCP-1”. The IC50 (Galectin-3 [6]) was 1160 nM.
In the case of `OC[C@H]1O[C@@H]([Se]Cc2ccc(F)c(F)c2)[C@H](O)[C@@H](n2cc(-c3cccc(F)c3)nn2)[C@H]1O` [G-656], the “inhibition of the interaction of gal-3 with integrin” value [7] is reported as “significantly inhibit”.
For `O=C(C[Se][C@@H]1O[C@H](CO)[C@H](O)[C@H](n2cc(-c3cccc(F)c3)nn2)[C@H]1O)c1ccc(F)c(F)c1` [G-662], the “inhibition of the interaction of gal-3 with integrin” value [7] was “significantly inhibit” and the “inhibition of Galectin-3 CRD specific fluorescent-ligand” value (Galectin-3 [2]) was “shown to inhibit the Gal-3 binding”.
In the case of `O=C[C@H](O)[C@@H](O)[C@@H](O)[C@H](O)CO` [Galactose, reference compound], the galectin-3 expression (Galectin-3 [4]) is reported as “should not have any effect”.
In the case of `OC[C@H]1O[C@@H](O[C@H]2[C@H](O)[C@@H](O)C(O)O[C@@H]2CO)[C@H](O)[C@@H](O)[C@H]1O` (stereo partly shown) [Lactose, reference compound], the galectin-3 expression (Galectin-3 [4]) is reported as “would have effect (at relatively high concentrations)”.
For `OC[C@H]1O[C@@H](S[C@@H]2O[C@H](CO)[C@H](O)[C@H](n3cc(-c4cccc(F)c4)nn3)[C@H]2O)[C@H](O)[C@@H](n2cc(-c3cccc(F)c3)nn2)[C@H]1O` [TD-139, beta-D-Galactopyranoside, 3-deoxy-3-(4-(3-fluorophenyl)-1H-1,2,3-triazol-1-yl)-beta-D-galactopyranosyl 3-deoxy-3-(4-(3-fluorophenyl)-1H-1,2,3-triazol-1-yl)-1-thio-], the “efficacy in mouse model of lung fibrosis” value [8] is given as “effective” and the “binding to galectin 3” value (Galectin-3 [9]) is given as “reported to bind to galectin 3”.
